Experimental data from US20140322251A1, “Peptides for Progressive Treating Multi-Focal Leukoencephalopathy and Related Conditions” (priority 2013, published 2014).
Entries after “also recorded” stand apart in the source; their conditions may differ.

What was measured:
HIV gp120 neurotoxicity = conditions: cited from earlier work; for EC50: read-out: EC50 (pM), antagonism of HIV gp120 neurotoxicity
[1] = test system: CCR5/CCR2 chemokine receptor system, CCL2 chemotaxis of human monocytes; assay: CCL2 (MCP-1) mediated human monocyte chemotaxis (FIG. 1); type: cell-based; conditions: FIG. 1, triplicate determinations
Source text: FIG. 1 illustrates that all-D-pentapeptide analogs of Peptide T inhibit CCL2 mediated human monocyte chemotaxis.
In order to overcome this limitation we hereby disclose an unexpected method of preserving potency. […] B. Pert, J. D. Rone, R. Nixon, M. Vance, B. Sandler, M. D. Lumpkin, D. J. Dieter, and M. R. Ruff. 1999. Peptide T blocks GP120/CCR5 chemokine receptor-mediated chemotaxis. Clin Immunol.
The FIG. 1 assay measured the peptide's ability to block CCL2 (MCP-1) chemotaxis.

[2] = test system: neuropathic pain and inflammation; conditions: animals; cited from earlier work
[3] = test system: HIV (92HT596; R5/X4 isolate) entry via CXCR4, MAGI-CXC4 cells; conditions: peptide 1 nM, 48 hrs, mean and s.e.m of triplicate cultures; cited from earlier work
[4] = test system: HIV (92HT596; R5/X4 isolate) entry via CCR5, MAGI-CCR5 cells; conditions: peptide 1 nM, 48 hrs, mean and s.e.m of triplicate cultures; cited from earlier work
chemokine receptors = conditions: two D-substitutions in peptide T; cited from earlier work

Substance	EC50 (HIV gp120 neurotoxicity)	BFU (% Control) MAGI-CXC4 [3]	further results
TTNdYT [reference compound]	–	–	EC50 (pM), antagonism of HIV gp120 neurotoxicity (HIV gp120 neurotoxicity): inactive; activity / biopotency (gp120 neurotoxicity) (HIV gp120 neurotoxicity): loss of all activity; also recorded: completely loses activity
TDNYT [reference compound]	3000 pM	–	–
TENYT [reference compound]	–	–	EC50 (pM), antagonism of HIV gp120 neurotoxicity (HIV gp120 neurotoxicity): inactive
STNYT	3 pM	–	–
(all-D)-TTNYT	–	–	block of CCL2 (MCP-1) chemotaxis / CCR5/CCR2 chemokine receptor system [1]: blocked; oral efficacy [2]: prevent and reverse neuropathic pain and block inflammation
TTNYT	10 pM	45 +/− 7 % Control	BFU (% Control) MAGI-CCR5 [4]: 23 +/− 4 % Control
NTSYG	10 pM	60 +/− 8| % Control	–
TTSFT [reference compound]	100000 pM	–	–
(D-A1, D-T8)-peptide T-NH2	–	–	loss of potency versus peptide T (chemokine receptors): over 100,000 fold
TTSYT	10 pM	35 +/− 7 % Control	BFU (% Control) MAGI-CCR5 [4]: 23 +/− 5 % Control
SSTYR	1 pM	–	–
ETWYS	13 pM	65 +/− 5 % Control	BFU (% Control) MAGI-CCR5 [4]: 21 +/− 7 % Control
